From paper PMC4052943 (BioMed Research International, 2014)
Read-outs that look alike come from different tables or passages of the source.

Experiments:
[1] = tested on: Salmonella typhimurium TA97a; details: TA 97a
Description: (§1) In the preincubation experiment, test compounds and mutagen, each having a volume of 0.1 mL of varying concentrations, were preincubated at 37°C for 30 min and then 0.1 mL of 1 × 10^7 CFU/mL density of the bacterial culture was added, followed by the addition of 2.5 mL of top agar at 45°C (containing 0.5% NaCl and 0.6% agar) supplemented with 0.5 mM histidine-biotin. […] The combined solutions were vortexed and poured onto minimal glucose plates (40% glucose solution and Vogel Bonner medium). The plates were incubated at 37°C for 48 h and the numbers of histidine-independent revertants colonies were scored.
(§2) Survival of the bacteria was routinely monitored for each experiment. Parallel controls were run with compounds alone at all concentrations to test the possible toxicity. The concentrations of the test samples for investigating the antimutagenicity were 50, 100, 200, and 500 μM. […] All the test samples and mutagens were dissolved in DMSO (final conc., 0.01%). […] Plates were set up in triplicate for each concentration and the entire experiment was repeated three times. Inhibition of mutagenicity was expressed as percentage decrease of reverse mutation and calculated as (1) Percent inhibition=[(a−b)/(a−c)]×100, where a = number of histidine revertants induced by mutagen, b = number of histidine revertants induced by mutagen in the presence of test compound, and c = number of revertants induced in negative control.

[2] = tested on: Salmonella typhimurium TA98; test: Ames antimutagenicity assay (preincubation); details: for inhibition at 50 µM / inhibition at 100 µM / inhibition at 250 µM / inhibition at 500 µM: Salmonella enterica, TYPHIMURIUM;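 as to all read-outs here: test compound and mutagen preincubated 30 min at 37°C before adding bacteria, then His+ revertant colonies counted after 48 h plating, inhibition relative to mutagen-only versus negative-control revertants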
Description: as §1, §2

[3] = tested on: Salmonella typhimurium strains TA97a, TA98, TA100, and TA102; test: Ames test, statements over all tester strains
Description: as §1, §2

[4] = tested on: Salmonella typhimurium TA100
Description: as §1, §2

With `O=C1O[C@H]2[C@@H]3OC(=O)c4cc(O)c(O)c(O)c4-c4c(O)c(O)c5oc(=O)c6c(c(O)c(O)c7oc(=O)c4c5c76)-c4c(cc(O)c(O)c4O)C(=O)OC[C@H]3OC(O)[C@@H]2OC(=O)c2cc(O)c(O)c(O)c2-c2c1cc(O)c(O)c2O` (mixture of isomers) [Punicalagin] as the compound, how does the “Number of His+ revertants colonies/plate” value ([1]; 50 μM alone (negative control), 2AF tables) read?
Its value is 132.3 ± 8.8 colonies/plate.

And the “Number of His+ revertants colonies/plate” value ([1]; 50 μM alone (negative control), BP tables)?
The value was 132.3 ± 8.8 colonies/plate.

What about the “Number of His+ revertants colonies/plate” value ([1]; 50 μM alone (negative control), MMS tables) of the same compound?
The value was 141.3 ± 5.2 colonies/plate.

What about the “Number of His+ revertants colonies/plate” value ([1]; 50 μM alone (negative control), NaN3 tables) of the same compound?
Its value is 141.3 ± 5.2 colonies/plate.

And the “Number of His+ revertants colonies/plate” value ([1]; 100 μM alone (negative control), 2AF tables)?
Its value is 158.0 ± 7.4 colonies/plate.

And the “Number of His+ revertants colonies/plate” value ([1]; 100 μM alone (negative control), BP tables)?
Its value is 158.0 ± 7.4 colonies/plate.

What about the “Number of His+ revertants colonies/plate” value ([1]; 100 μM alone (negative control), MMS tables) of the same compound?
Its value is 153.7 ± 9.2 colonies/plate.

What about the “Number of His+ revertants colonies/plate” value ([1]; 100 μM alone (negative control), NaN3 tables) of the same compound?
The value was 153.7 ± 9.2 colonies/plate.

What about the “Number of His+ revertants colonies/plate” value ([1]; 250 μM alone (negative control), 2AF tables) of the same compound?
Its value is 165.7 ± 10.9 colonies/plate.

And the “Number of His+ revertants colonies/plate” value ([1]; 250 μM alone (negative control), BP tables)?
The value was 165.7 ± 10.9 colonies/plate.

What about the “Number of His+ revertants colonies/plate” value ([1]; 250 μM alone (negative control), MMS tables) of the same compound?
The value was 158.3 ± 7.1 colonies/plate.

And the “Number of His+ revertants colonies/plate” value ([1]; 250 μM alone (negative control), NaN3 tables)?
Its value is 158.3 ± 7.1 colonies/plate.

And the “Number of His+ revertants colonies/plate” value ([1]; 500 μM alone (negative control), 2AF tables)?
The value was 188.0 ± 9.5 colonies/plate.

What about the “Number of His+ revertants colonies/plate” value ([1]; 500 μM alone (negative control), BP tables) of the same compound?
The value was 188.0 ± 9.5 colonies/plate.

And the “Number of His+ revertants colonies/plate” value ([1]; 500 μM alone (negative control), MMS tables)?
Its value is 174.0 ± 6.4 colonies/plate.

And the “Number of His+ revertants colonies/plate” value ([1]; 500 μM alone (negative control), NaN3 tables)?
Its value is 174.0 ± 6.4 colonies/plate.

And the inhibition at 50 µM ([2]; read-out: % inhibition of mutagenicity, TA 98, 50 μM + 2AF, S9)?
Its inhibition at 50 µM is 20.5%.

What about the inhibition at 50 µM ([2]; read-out: % inhibition of mutagenicity, TA 98, 50 μM + BP, S9) of the same compound?
Its inhibition at 50 µM is 22.1%.

And the inhibition at 50 µM ([2]; read-out: % inhibition of mutagenicity, TA 98, 50 μM + MMS, no S9)?
The inhibition at 50 µM was 29.4%.

What about the inhibition at 100 µM ([2]; read-out: % inhibition of mutagenicity, TA 98, 100 μM + 2AF, S9) of the same compound?
Its inhibition at 100 µM is 37.5%.

And the inhibition at 100 µM ([2]; read-out: % inhibition of mutagenicity, TA 98, 100 μM + BP, S9)?
Its inhibition at 100 µM is 46.6%.

And the inhibition at 100 µM ([2]; read-out: % inhibition of mutagenicity, TA 98, 100 μM + MMS, no S9)?
The inhibition at 100 µM was 46.3%.

What about the inhibition at 100 µM ([2]; read-out: % inhibition of mutagenicity, TA 98, 100 μM + NaN3, no S9) of the same compound?
The inhibition at 100 µM was 30%.

What about the inhibition at 250 µM ([2]; read-out: % inhibition of mutagenicity, TA 98, 250 μM + BP, S9) of the same compound?
The inhibition at 250 µM was 74.8%.

What about the inhibition at 250 µM ([2]; read-out: % inhibition of mutagenicity, TA 98, 250 μM + MMS, no S9) of the same compound?
The inhibition at 250 µM was 59.2%.

What about the inhibition at 250 µM ([2]; read-out: % inhibition of mutagenicity, TA 98, 250 μM + NaN3, no S9) of the same compound?
The inhibition at 250 µM was 52.2%.

And the inhibition at 500 µM ([2]; read-out: % inhibition of mutagenicity, TA 98, 500 μM + 2AF, S9)?
Its inhibition at 500 µM is 81.4%.

And the inhibition at 500 µM ([2]; read-out: % inhibition of mutagenicity, TA 98, 500 μM + BP, S9)?
The inhibition at 500 µM was 78.8%.

And the inhibition at 500 µM ([2]; read-out: % inhibition of mutagenicity, TA 98, 500 μM + MMS, no S9)?
Its inhibition at 500 µM is 71%.

And the inhibition at 500 µM ([2]; read-out: % inhibition of mutagenicity, TA 98, 500 μM + NaN3, no S9)?
The inhibition at 500 µM was 65.3%.

And the “Number of His+ revertants colonies/plate” value ([2]; TA 98, 50 μM + 2AF, S9)?
The value was 210.3 ± 10.7 colonies/plate.

What about the “Number of His+ revertants colonies/plate” value ([2]; TA 98, 50 μM + BP, S9) of the same compound?
The value was 138.0 ± 8.7 colonies/plate.

And the “Number of His+ revertants colonies/plate” value ([2]; TA 98, 50 μM + MMS, no S9)?
The value was 50.3 ± 1.8 colonies/plate.

And the “Number of His+ revertants colonies/plate” value ([2]; TA 98, 100 μM + 2AF, S9)?
Its value is 172.3 ± 12.0 colonies/plate.

What about the “Number of His+ revertants colonies/plate” value ([2]; TA 98, 100 μM + BP, S9) of the same compound?
The value was 105.3 ± 9.0 colonies/plate.

And the “Number of His+ revertants colonies/plate” value ([2]; TA 98, 100 μM + MMS, no S9)?
The value was 45.3 ± 2.0 colonies/plate.

What about the “Number of His+ revertants colonies/plate” value ([2]; TA 98, 100 μM + NaN3, no S9) of the same compound?
The value was 47.3 ± 1.8 colonies/plate.

What about the “Number of His+ revertants colonies/plate” value ([2]; TA 98, 250 μM + BP, S9) of the same compound?
The value was 65.0 ± 6.8 colonies/plate.

And the “Number of His+ revertants colonies/plate” value ([2]; TA 98, 250 μM + MMS, no S9)?
The value was 39.7 ± 2.0 colonies/plate.

And the “Number of His+ revertants colonies/plate” value ([2]; TA 98, 250 μM + NaN3, no S9)?
Its value is 40.7 ± 2.6 colonies/plate.

What about the “Number of His+ revertants colonies/plate” value ([2]; TA 98, 500 μM + 2AF, S9) of the same compound?
Its value is 65.3 ± 4.1 colonies/plate.

And the “Number of His+ revertants colonies/plate” value ([2]; TA 98, 500 μM + BP, S9)?
Its value is 52.7 ± 4.3 colonies/plate.

What about the “Number of His+ revertants colonies/plate” value ([2]; TA 98, 500 μM + MMS, no S9) of the same compound?
Its value is 35.0 ± 2.1 colonies/plate.

And the “% inhibition of mutagenicity” value ([2]; TA 98, 500 μM + MMS, no S9, 500 µM)?
Its value is 70.9%.

What about the “Number of His+ revertants colonies/plate” value ([2]; TA 98, 500 μM + NaN3, no S9) of the same compound?
Its value is 36.0 ± 1.7 colonies/plate.

And the “toxicity to Salmonella typhimurium strains” value ([3]; 50–500 μM, absence of S9)?
The value was “No toxicity”.

And the inhibition at 500 µM ([3]; Salmonella enterica, TYPHIMURIUM, read-out: inhibition of 2AF- and BP-induced mutagenicity (range over strains))?
The inhibition at 500 µM was 76.7 to 85%.

What about the mutagenic activity ([3]; TA97a, TA98, TA100, TA102, with or without S9, plate incorporation assay) of the same compound?
Its mutagenic activity is “No mutagenic activity”.

And the “maximum inhibition of mutagenicity” value ([3]; against sodium azide, MMS, BP, 2AF, 50–500 μM)?
Its value is “up to 90%”.

What about the “Number of His+ revertants colonies/plate” value ([4]; Salmonella typhimurium) of the same compound?
Its value is 175.3 ± 14.3 colonies/plate.

What about the “Number of His+ revertants colonies/plate” value ([4]; TA 100, 50 μM alone (negative control), 2AF tables) of the same compound?
The value was 136.0 ± 11.7 colonies/plate.

And the “Number of His+ revertants colonies/plate” value ([4]; TA 100, 50 μM alone (negative control), BP tables)?
Its value is 136.0 ± 11.7 colonies/plate.

What about the “Number of His+ revertants colonies/plate” value ([4]; TA 100, 50 μM alone (negative control), MMS tables) of the same compound?
Its value is 189.7 ± 12.0 colonies/plate.

And the “Number of His+ revertants colonies/plate” value ([4]; TA 100, 50 μM alone (negative control), NaN3 tables)?
Its value is 189.7 ± 12.0 colonies/plate.

What about the “Number of His+ revertants colonies/plate” value ([4]; TA 100, 100 μM alone (negative control), 2AF tables) of the same compound?
Its value is 162.7 ± 15.0 colonies/plate.

And the “Number of His+ revertants colonies/plate” value ([4]; TA 100, 100 μM alone (negative control), BP tables)?
The value was 162.7 ± 15.0 colonies/plate.

And the “Number of His+ revertants colonies/plate” value ([4]; TA 100, 100 μM alone (negative control), MMS tables)?
Its value is 181.0 ± 7.4 colonies/plate.

And the “Number of His+ revertants colonies/plate” value ([4]; TA 100, 100 μM alone (negative control), NaN3 tables)?
The value was 181.0 ± 7.4 colonies/plate.

What about the “Number of His+ revertants colonies/plate” value ([4]; TA 100, 250 μM alone (negative control), BP tables) of the same compound?
Its value is 175.3 ± 14.3 colonies/plate.

What about the “Number of His+ revertants colonies/plate” value ([4]; TA 100, 250 μM alone (negative control), MMS tables) of the same compound?
The value was 165.3 ± 5.4 colonies/plate.

What about the “Number of His+ revertants colonies/plate” value ([4]; TA 100, 250 μM alone (negative control), NaN3 tables) of the same compound?
Its value is 165.3 ± 5.4 colonies/plate.

What about the “Number of His+ revertants colonies/plate” value ([4]; TA 100, 500 μM alone (negative control), 2AF tables) of the same compound?
The value was 191.0 ± 15.0 colonies/plate.

What about the “Number of His+ revertants colonies/plate” value ([4]; TA 100, 500 μM alone (negative control), BP tables) of the same compound?
Its value is 191.0 ± 15.0 colonies/plate.

What about the “Number of His+ revertants colonies/plate” value ([4]; TA 100, 500 μM alone (negative control), MMS tables) of the same compound?
Its value is 187.7 ± 9.8 colonies/plate.

What about the “Number of His+ revertants colonies/plate” value ([4]; TA 100, 500 μM alone (negative control), NaN3 tables) of the same compound?
The value was 187.7 ± 9.8 colonies/plate.
